Data: publication PMC6952414 (Nature Communications, 2020)
pEC50: −log10 of the molar value. Several values for one entry are separate records, joined by “and”; a condition that tells them apart may be missing. Equal values may be shown once. Read-outs that look alike come from different tables or passages of the source. Positions of bridges follow the written chain, without caps; N, C: chain ends. Non-standard residues stand in square brackets, D forms with d. Chains are numbered I, II in the order given. No end group written: not given here. Ahx = NCCCCCC(=O)O

Tests used:
[1] = tested on: MDCK cells; conditions: 5 mM for 16 h
[2] = tested on: IAV strain PR8
[3] = tested on: IAV strain PR8; format: cell-based, IAV H1N1 strain A/Puerto Rico/8/1934 (PR8)
[4] = tested on: IAV strain PR8; set-up: species or system BALB/c mice; conditions: mouse, in vivo
[5] = tested on: IAV strain PR8; experiment: microbe, parasite or virus in culture; conditions: Influenza A virus, PR8, MDCK, read-out: EC50 (μM), IAV cytopathicity
[6] = tested on: IAV strain PR8; format: cell-based, IAV H1N1 strain A/Puerto Rico/8/1934 (PR8); remark: listed apart in the source
[7] = tested on: IAV strain PR8; format: cell-based, IAV H1N1 strain A/Puerto Rico/8/1934 (PR8); remark: listed apart in the source
[8] = tested on: IAV strain PR8; format: cell-based, IAV H1N1 strain A/Puerto Rico/8/1934 (PR8); remark: listed apart in the source
[9] = tested on: virus NP mRNA; format: cell-based, IAV H1N1 strain A/Puerto Rico/8/1934 (PR8)
[10] = tested on: recombinant HA / α2-6sialyllactose-PAA; format: binding, IAV H1N1 strain A/Puerto Rico/8/1934 (PR8)
[11] = biological target: immobilized recombinant HA (Influenza A virus, UniProt P03452); format: binding, IAV H1N1 strain A/Puerto Rico/8/1934 (PR8)
[12] = tested on: IAV strain PR8; format: cell-based, IAV H1N1 strain A/Puerto Rico/8/1934 (PR8); remark: listed apart in the source
[13] = tested on: IAV particles (strain PR8); format: biochemical, IAV H1N1 strain A/Puerto Rico/8/1934 (PR8)
[14] = tested on: HA1/HA2; format: binding, IAV H1N1 strain A/Puerto Rico/8/1934 (PR8)
[15] = tested on: PR8-HA0; format: binding, IAV H1N1 strain A/Puerto Rico/8/1934 (PR8)
[16] = tested on: PR8-HA1/HA2; format: binding, IAV H1N1 strain A/Puerto Rico/8/1934 (PR8)
[17] = tested on: IAV strain PR8; format: cell-based, IAV H1N1 strain A/Puerto Rico/8/1934 (PR8); remark: listed apart in the source
[18] = tested on: IAV strain PR8; format: cell-based, IAV H1N1 strain A/Puerto Rico/8/1934 (PR8); remark: listed apart in the source
[19] = tested on: IAV strain PR8; format: cell-based, IAV H1N1 strain A/Puerto Rico/8/1934 (PR8); remark: listed apart in the source
[20] = tested on: IAV strain PR8; format: cell-based, IAV H1N1 strain A/Puerto Rico/8/1934 (PR8); remark: listed apart in the source
[21] = tested on: HA; format: biochemical, IAV H1N1 strain A/Puerto Rico/8/1934 (PR8)
[22] = tested on: recombinant HA derived from H5N1 A/chicken/Yamaguchi/7/2004 strain; format: binding, Influenza A virus H5N1
[23] = tested on: HA; format: cell-based, IAV H1N1 strain A/Puerto Rico/8/1934 (PR8)
[24] = tested on: LC3-II; format: cell-based, canine
[25] = tested on: cell surface HA; format: cell-based, IAV H1N1 strain A/Puerto Rico/8/1934 (PR8)
[26] = tested on: MDCK cells
[27] = tested on: IAV strain PR8; remark: listed apart in the source
[28] = tested on: IAV strain PR8; format: cell-based, IAV H1N1 strain A/Puerto Rico/8/1934 (PR8); remark: listed apart in the source

immobilized recombinant HA, sequence (P03452 18-565 limits assumed): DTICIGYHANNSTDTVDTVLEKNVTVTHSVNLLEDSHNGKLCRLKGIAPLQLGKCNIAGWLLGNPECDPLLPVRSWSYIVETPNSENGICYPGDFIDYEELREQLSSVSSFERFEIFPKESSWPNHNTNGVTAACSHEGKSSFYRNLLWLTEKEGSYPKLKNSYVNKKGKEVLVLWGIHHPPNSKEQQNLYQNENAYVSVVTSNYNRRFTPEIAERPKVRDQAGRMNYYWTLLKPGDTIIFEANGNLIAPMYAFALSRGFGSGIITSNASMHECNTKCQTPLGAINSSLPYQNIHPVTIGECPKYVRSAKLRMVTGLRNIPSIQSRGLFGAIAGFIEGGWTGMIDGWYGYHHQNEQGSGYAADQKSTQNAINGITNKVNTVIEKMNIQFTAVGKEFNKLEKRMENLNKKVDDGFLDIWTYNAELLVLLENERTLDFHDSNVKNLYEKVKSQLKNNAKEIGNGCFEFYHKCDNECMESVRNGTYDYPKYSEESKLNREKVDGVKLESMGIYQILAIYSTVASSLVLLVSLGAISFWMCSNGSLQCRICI

Molecule: 3-MA
- cell viability of uninfected MDCK cells (in words) [1]: did not affect the cell viability

Molecule: CSCC[C@H](N)C(=O)N[C@@H](C)C(=O)N[C@@H](C)C(=O)NCCCCCC(=O)NCCCC[C@H](NC(=O)CCCCCNC(=O)[C@H](C)NC(=O)[C@H](C)NC(=O)[C@@H](N)CCSC)C(=O)NCCCC[C@H](NC(=O)[C@H](CCCCNC(=O)CCCCCNC(=O)[C@H](C)NC(=O)[C@H](C)NC(=O)[C@@H](N)CCSC)NC(=O)CCCCCNC(=O)[C@H](C)NC(=O)[C@H](C)NC(=O)[C@@H](N)CCSC)C(=O)O [MA-tet]
- inhibition of IAV cytopathicity (in words) [2]: did not inhibit the cytopathicity

Molecule: C[C@@H]1COCCN1c1cc(=O)n2c(n1)N(Cc1cncc(Cl)c1)[C@H](C(F)(F)F)CC2 [SAR405]
- effect on the dose-dependent anti-viral activity of PVF-tet (in words) [3]: suppressed the dose-dependent anti-viral activity of PVF-tet

Molecule: CC(=O)N[C@H]1[C@H]([C@H](O)[C@H](O)CO)OC(C(=O)O)=C[C@@H]1N=C(N)N [Zanamivir, zanamivir]
- body weight loss (in words) [4]: attenuated the weight loss
- mice rescued from mortality [4]: 100%
- EC50 [5]: 0.2 µM

Molecule: CO/C1=C\C(C)=C\[C@@H](C)[C@@H](O)[C@@H](C)C/C(C)=C/C=C/[C@H](OC)[C@@H]([C@@H](C)[C@@H](O)[C@H](C)[C@@]2(O)C[C@@H](O)[C@H](C)[C@@H](C(C)C)O2)OC1=O [bafilomycin A1]
- NP-positive cells (%) [6]: 5.3% and 2.2% and 2.8% and 3.8%
- virus entry into target cells, NP-positive cells (in words) [6]: completely inhibited virus entry into cells
- time of administration after initial IAV infection at which cytopathicity is still inhibited [7]: < 5 h
- fusion process monitored by fluorescently labeled virus (in words) [8]: efficiently inhibited both events
- NP mRNA synthesis (in words) [9]: efficiently inhibited both events
- Relative mRNA expression (fold increase) [9]: 0.134 fold increase and 0.131 fold increase and 0.156 fold increase and 0.244 fold increase and 0.237 fold increase and 0.138 fold increase and 0.155 fold increase

Molecule: I: MARRPVNHFA[Ahx]KK-NH2 / II: MARRPVNHFA[Ahx]K / III: MARRPVNHFA[Ahx] / IV: MARRPVNHFA[Ahx] (amide I:12-IV:C, I:13-II:C, II:12-III:C) [PVF-tet]
- inhibition of the interaction between HA and α2,6-sialyllactose polymer (in words) [10]: also efficiently inhibited the binding of HA to α2-6 sialyllactose-polymer
- Rmax [11]: 1004 RU
- binding to HA (in words) [11]: bound to HA with high affinity
- fold increase of virus titer over the initial virus titer [12]: about 50 fold
- inhibition of IAV propagation (in words) [12]: inhibited IAV propagation to a greater degree than fetuin
- NP-positive cells (%) [6]: 51.6% and 50.5% and 44.6% and 50.0%
- virus entry into target cells, NP-positive cells (in words) [6]: did not inhibit virus entry into target cells
- time of administration after initial IAV infection at which cytopathicity is still inhibited [7]: up to 9 h
- fusion process monitored by fluorescently labeled virus (in words) [8]: did not affect the fusion process
- NP mRNA synthesis (in words) [9]: did not affect
- inhibition of IAV-induced hemagglutination (in words) [13]: did not inhibit IAV-induced hemagglutination
- effect of proteolytic cleavage of recombinant HA into HA1/HA2 on binding (in words) [14]: reduced the binding of PVF-tet to HA
- binding to non-infectious IAV particles with HA0 (in words) [15]: did bind with remarkable efficacy to non-infectious IAV particles with HA0
- binding to infectious IAV particles with HA1/HA2 (in words) [16]: did not bind to infectious IAV particles with HA1/HA2
- cell viability [17]: 103 ± 9% and 85 ± 9%
- inhibition of cytopathicity when treated from 2 h post-infection for limited periods (in words) [17]: still efficiently inhibited the cytotoxicity
- Cell viabilitiy(%) [18]: 136.2% and 97.5% and 109.1% and 71.8% and 88.5% and 71.7%
- anti-IAV activity in the ABCA3-knockout clone (in words) [18]: retained its anti-IAV activity
- anti-viral activity in ULK1-knockout clones (in words) [19]: significantly suppressed in the clones
- anti-viral activity in PIK3C3-knockout clones (in words) [20]: significantly suppressed in the clones
- formation of highly clustered HA (in words) [21]: induced the formation of highly clustered HA
- binding to recombinant H5N1 HA (in words) [22]: bound
- amount of newly synthesized HA in infected cells (in words) [23]: accumulated in a time-dependent manner
- formation of LC3-II (in words) [24]: further enhanced the formation of LC3-II
- amount of HA on the plasma membrane (in words) [25]: marked reduction of the amount of HA that was present on the plasma membrane
- pEC50 ([2]; 24 h): 5.85
- effect of FBS on incorporation into cells (in words) [26]: enhanced by the presence of fetal bovine serum (FBS)
- incorporation into MDCK cells (in words) [26]: can be incorporated into MDCK cells at 37 °C
- inhibition of IAV cytopathicity in Caco-2 cells (in words) [27]: equally inhibited cytopathicity induced by both low and high MOI infection

Molecule: RRPVNHD [PVD-tet]
- inhibition of IAV cytopathicity (in words) [2]: failed to inhibit IAV cytopathicity
- incorporation into MDCK cells (in words) [26]: less cell-penetrating

Molecule: RRRVNHH [RVH-tet]
- inhibition of IAV cytopathicity (in words) [2]: efficiently inhibited the cytopathicity in a dose-dependent manner

Molecule: asialofetuin [reference compound]
- binding to non-infectious IAV particles with HA0 (in words) [15]: exhibited no binding
- binding to infectious IAV particles with HA1/HA2 (in words) [16]: exhibited no binding

Molecule: fetuin
- inhibition of IAV cytopathicity at low MOI (in words) [28]: had the greatest inhibitory effect
- Virus propagation (fold increase) [12]: 350.0 fold increase and 466.7 fold increase and 483.3 fold increase
- inhibition of IAV-induced hemagglutination (in words) [13]: efficiently inhibited the activity
- effect of proteolytic cleavage of recombinant HA into HA1/HA2 on binding (in words) [14]: also reduced by the cleavage of HA
- binding to non-infectious IAV particles with HA0 (in words) [15]: exhibited much more binding
- inhibition of IAV cytopathicity (in words) [2]: showed no inhibitory effect at all
